The results in this text go back to patent US20240025884A1 (Dong-A ST Co., Ltd., priority 2022, published 2024).

As a reminder, the IC50 is the concentration needed to halve the response being measured.

GCN2, sequence (Q9P2K8 whole entry): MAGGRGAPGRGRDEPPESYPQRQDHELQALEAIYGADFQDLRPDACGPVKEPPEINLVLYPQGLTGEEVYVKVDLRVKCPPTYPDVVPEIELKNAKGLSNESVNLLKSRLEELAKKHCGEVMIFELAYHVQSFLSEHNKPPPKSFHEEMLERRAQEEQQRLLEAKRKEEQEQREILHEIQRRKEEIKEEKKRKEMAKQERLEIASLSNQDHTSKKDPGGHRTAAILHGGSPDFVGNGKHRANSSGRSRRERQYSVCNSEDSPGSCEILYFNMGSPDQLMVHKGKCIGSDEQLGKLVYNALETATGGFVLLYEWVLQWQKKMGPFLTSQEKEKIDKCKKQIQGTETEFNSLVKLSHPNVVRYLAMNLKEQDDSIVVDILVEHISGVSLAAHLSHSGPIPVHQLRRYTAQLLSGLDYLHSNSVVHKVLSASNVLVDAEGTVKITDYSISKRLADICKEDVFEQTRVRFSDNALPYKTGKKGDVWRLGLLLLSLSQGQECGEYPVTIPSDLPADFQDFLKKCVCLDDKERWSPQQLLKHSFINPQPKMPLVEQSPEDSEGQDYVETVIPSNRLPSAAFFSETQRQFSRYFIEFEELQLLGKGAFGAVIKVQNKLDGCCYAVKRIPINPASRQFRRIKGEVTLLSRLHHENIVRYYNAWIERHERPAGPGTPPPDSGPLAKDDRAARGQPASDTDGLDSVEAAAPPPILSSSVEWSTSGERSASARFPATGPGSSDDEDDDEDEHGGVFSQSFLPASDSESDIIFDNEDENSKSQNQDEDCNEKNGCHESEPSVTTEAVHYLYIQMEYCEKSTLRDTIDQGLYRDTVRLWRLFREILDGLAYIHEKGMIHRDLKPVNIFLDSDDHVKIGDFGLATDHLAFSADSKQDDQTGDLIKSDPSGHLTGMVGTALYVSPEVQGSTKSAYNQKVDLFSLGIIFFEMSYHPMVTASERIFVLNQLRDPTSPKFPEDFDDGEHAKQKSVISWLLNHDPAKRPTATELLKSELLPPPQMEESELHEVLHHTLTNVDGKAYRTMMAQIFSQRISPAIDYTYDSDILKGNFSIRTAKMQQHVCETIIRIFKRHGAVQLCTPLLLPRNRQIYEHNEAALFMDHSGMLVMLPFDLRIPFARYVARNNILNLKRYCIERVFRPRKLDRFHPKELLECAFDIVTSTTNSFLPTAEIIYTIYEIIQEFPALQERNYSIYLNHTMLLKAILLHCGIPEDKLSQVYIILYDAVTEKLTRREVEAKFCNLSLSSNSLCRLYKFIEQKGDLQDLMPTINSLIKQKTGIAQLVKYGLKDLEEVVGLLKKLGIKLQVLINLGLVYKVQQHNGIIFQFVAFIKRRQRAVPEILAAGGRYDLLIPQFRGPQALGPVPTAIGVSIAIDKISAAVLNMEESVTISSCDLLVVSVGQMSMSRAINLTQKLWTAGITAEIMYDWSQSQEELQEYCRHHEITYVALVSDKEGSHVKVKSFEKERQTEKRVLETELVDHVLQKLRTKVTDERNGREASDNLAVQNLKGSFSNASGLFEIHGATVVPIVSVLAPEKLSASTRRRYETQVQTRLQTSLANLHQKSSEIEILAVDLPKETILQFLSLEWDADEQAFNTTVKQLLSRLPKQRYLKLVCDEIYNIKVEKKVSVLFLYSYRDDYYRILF

The target of this test is GCN2 (Homo sapiens (Human), UniProt Q9P2K8). Description: GCN2 Biochemical Assay (TR-FRET, GFP-eIF2S1 substrate phosphorylation). To be noted: read-out: IC50 (GCN2 Inhibitory Activity). The method in brief:
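TR-FRET readout (Ex 340, Em 490/520 nm) after 2–3 h with Tb-labelled phospho-eIF2S1 antibody in stop mix, following a 70 min room-temperature kinase step. Reaction: in-house GCN2, GFP-eIF2S1, ATP, tRNA in Tris pH 7.5 (2× stocks 1.6 nM, 50 nM, 0.2 mM); compounds tested at 10 concentrations, with a phospho-substrate artifact counter-plate.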
(TR-FRET usually uses a lanthanide donor and a delayed reading to cut background.)
With `Cc1cnc(Nc2cc(C)n(C)n2)nc1-c1c[nH]c2c(N3Cc4ccc(N)cc4C3=O)cccc12` [Example 269, 6-amino-2-(3-(2-((1,5-dimethyl-1H-pyrazol-3-yl)amino)-5-methylpyrimidin-4-yl)-1H-indol-7-yl)isoindolin-1-one], the IC50 is less than 10 nM.
Under `Cc1cnc(Nc2cc(C)n(C)n2)nc1-c1c[nH]c2c(N3Cc4c(cccc4C4=CCSCC4)C3=O)cccc12` [Example 413, 4-(3,6-dihydro-2H-thiopyran-4-yl)-2-(3-(2-((1,5-dimethyl-1H-pyrazol-3-yl)amino)-5-methylpyrimidin-4-yl)-1H-indol-7-yl)isoindolin-1-one] stands less than 10 nM.
As to `Cc1cnc(Nc2cc(C)n(C)n2)nc1-c1c[nH]c2c(NC(=O)CN3CC[C@H](Oc4cc(C(F)(F)F)nc(NC5CC5)n4)C3)cccc12` [Example 237, (S)-2-(3-((2-(cyclopropylamino)-6-(trifluoromethyl)pyrimidin-4-yl)oxy)pyrrolidin-1-yl)-N-(3-(2-((1,5-dimethyl-1H-pyrazol-3-yl)amino)-5-methylpyrimidin-4-yl)-1H-indol-7-yl)acetamide], the IC50 was in the range of 10 to 100 nM.
As for `Cc1cnc(Nc2cc(C)n(C)n2)nc1-c1c[nH]c2c(N3Cc4c(cccc4-c4ccccc4)C3=O)cccc12` [Example 377, 2-(3-(2-((1,5-dimethyl-1H-pyrazol-3-yl)amino)-5-methylpyrimidin-4-yl)-1H-indol-7-yl)-4-phenylisoindolin-1-one], the figure is less than 10 nM.
As to `Cc1cnc(Nc2cc(C)n(C)n2)nc1-c1c[nH]c2c(NC(=O)CN3CC[C@H](Oc4ncnc(N)n4)C3)cccc12` [Example 134, (S)-2-(3-((4-amino-1,3,5-triazin-2-yl)oxy)pyrrolidin-1-yl)-N-(3-(2-((1,5-dimethyl-1H-pyrazol-3-yl)amino)-5-methylpyrimidin-4-yl)-1H-indol-7-yl)acetamide], the IC50 was less than 10 nM.
Turning to `Cc1cnc(Nc2cc(C)n(C)n2)nc1-c1c[nH]c2c(NC(=O)CN3CC[C@H](Oc4nccc(N(C)C)n4)C3)cccc12` [Example 170, (S)-N-(3-(2-((1,5-dimethyl-1H-pyrazol-3-yl)amino)-5-methylpyrimidin-4-yl)-1H-indol-7-yl)-2-(3-((4-(dimethylamino)pyrimidin-2-yl)oxy)pyrrolidin-1-yl)acetamide], the IC50 was less than 10 nM.
Consider `Cc1cnc(Nc2cc(C)n(C)n2)nc1-c1c[nH]c2c(N3Cc4c(NC(=O)c5cnco5)cccc4C3=O)cccc12` [Example 323, N-(2-(3-(2-((1,5-dimethyl-1H-pyrazol-3-yl)amino)-5-methylpyrimidin-4-yl)-1H-indol-7-yl)-1-oxoisoindolin-4-yl)oxazole-5-carboxamide], for which the IC50 was less than 10 nM.
Consider `COc1ccc2c(-c3nc(Nc4cc(C)n(C)n4)ncc3C)c[nH]c2c1NC(=O)CN1CC[C@H](Oc2ccnc(NC3CC3)n2)C1` [Example 4, (S)-2-(3-((2-(cyclopropylamino)pyrimidin-4-yl)oxy)pyrrolidin-1-yl)-N-(3-(2-((1,5-dimethyl-1H-pyrazol-3-yl)amino)-5-methylpyrimidin-4-yl)-6-methoxy-1H-indol-7-yl)acetamide], for which the IC50 was less than 10 nM.
On to `Cc1cnc(Nc2cc(C)n(C)n2)nc1-c1c[nH]c2c(N3Cc4c(cccc4-c4cnn(CCN5CCOCC5)c4)C3=O)cccc12` [Example 416, 2-(3-(2-((1,5-dimethyl-1H-pyrazol-3-yl)amino)-5-methylpyrimidin-4-yl)-1H-indol-7-yl)-4-(1-(2-morpholinoethyl)-1H-pyrazol-4-yl)isoindolin-1-one], for which the IC50 is less than 10 nM.
As for `Cc1cnc(Nc2cc(C)n(C)n2)nc1-c1c[nH]c2c(N3Cc4c(-c5ccccc5)ccc(I)c4C3=O)cccc12` [Example 492, 2-(3-(2-((1,5-dimethyl-1H-pyrazol-3-yl)amino)-5-methylpyrimidin-4-yl)-1H-indol-7-yl)-7-iodo-4-phenylisoindolin-1-one], the figure is 100 to 1000 nM.
`Cc1cnc(Nc2cc(C)n(C)n2)nc1-c1c[nH]c2c(NC(=O)CN3CC[C@H](Oc4noc5ccccc45)C3)cccc12` [Example 113, (S)-2-(3-(benzo[d]isoxazol-3-yloxy)pyrrolidin-1-yl)-N-(3-(2-((1,5-dimethyl-1H-pyrazol-3-yl)amino)-5-methylpyrimidin-4-yl)-1H-indol-7-yl)acetamide]: the IC50 fell in the range of 10 to 100 nM.
Under `Cc1ccc(-c2cccc3c2CN(c2cccc4c(-c5nc(Nc6cc(C)n(C)n6)ncc5C)c[nH]c24)C3=O)s1` [Example 451, 2-(3-(2-((1,5-dimethyl-1H-pyrazol-3-yl)amino)-5-methylpyrimidin-4-yl)-1H-indol-7-yl)-4-(5-methylthiophen-2-yl)isoindolin-1-one] stands 10 to 100 nM; under `CCCCNc1nccc(O[C@H]2CCN(CC(=O)Nc3cccc4c(-c5nc(Nc6cc(C)n(C)n6)ncc5C)c[nH]c34)C2)n1` [Example 205, (S)-2-(3-((2-(butylamino)pyrimidin-4-yl)oxy)pyrrolidin-1-yl)-N-(3-(2-((1,5-dimethyl-1H-pyrazol-3-yl)amino)-5-methylpyrimidin-4-yl)-1H-indol-7-yl)acetamide], less than 10 nM.
Turning to `Cc1cnc(Nc2cc(C)n(C)n2)nc1-c1c[nH]c2c(NC(=O)CN3CC[C@H](Oc4cc(N(C)C)ncn4)C3)cccc12` [Example 153, (S)-N-(3-(2-((1,5-dimethyl-1H-pyrazol-3-yl)amino)-5-methylpyrimidin-4-yl)-1H-indol-7-yl)-2-(3-((6-(dimethylamino)pyrimidin-4-yl)oxy)pyrrolidin-1-yl)acetamide], the IC50 is less than 10 nM.
Consider `Cc1cnc(Nc2cc(C)n(C)n2)nc1-c1c[nH]c2c(N3Cc4c(/C=C/C(=O)N(C)C)ccc(F)c4C3=O)cccc12` [Example 359, (E)-3-(2-(3-(2-((1,5-dimethyl-1H-pyrazol-3-yl)amino)-5-methylpyrimidin-4-yl)-1H-indol-7-yl)-7-fluoro-1-oxoisoindolin-4-yl)-N,N-dimethylacrylamide], for which the IC50 was in the range of 10 to 100 nM.
In the case of `COc1ccc2c(c1)C(=O)N(c1cccc3c(-c4nc(Nc5cc(C)n(C)n5)ncc4C)c[nH]c13)C2` [Example 279, 2-(3-(2-((1,5-dimethyl-1H-pyrazol-3-yl)amino)-5-methylpyrimidin-4-yl)-1H-indol-7-yl)-6-methoxyisoindolin-1-one], the IC50 was in the range of 10 to 100 nM.
Under `Cc1cnc(Nc2cc(C)n(C)n2)nc1-c1c[nH]c2c(NC(=O)CN3CC[C@H](Oc4ncc(-c5ccncc5)cn4)C3)cccc12` [Example 256, (S)-N-(3-(2-((1,5-dimethyl-1H-pyrazol-3-yl)amino)-5-methylpyrimidin-4-yl)-1H-indol-7-yl)-2-(3-((5-(pyridin-4-yl)pyrimidin-2-yl)oxy)pyrrolidin-1-yl)acetamide] stands 10 to 100 nM; under `Cc1cnc(Nc2cc(C)n(C)n2)nc1-c1c[nH]c2c(N3Cc4c(Br)ccc(F)c4C3=O)cccc12` [Example 283, 4-bromo-2-(3-(2-((1,5-dimethyl-1H-pyrazol-3-yl)amino)-5-methylpyrimidin-4-yl)-1H-indol-7-yl)-7-fluoroisoindolin-1-one], less than 10 nM.
With `Cc1cnc(Nc2cc(C)n(C)n2)nc1-c1c[nH]c2c(NC(=O)CN3CC[C@H](Oc4cc(N5CCCCC5)ncn4)C3)cccc12` [Example 162, (S)-N-(3-(2-((1,5-dimethyl-1H-pyrazol-3-yl)amino)-5-methylpyrimidin-4-yl)-1H-indol-7-yl)-2-(3-((6-(piperidin-1-yl)pyrimidin-4-yl)oxy)pyrrolidin-1-yl)acetamide], the IC50 was less than 10 nM.
Under `Cc1cnc(Nc2cc(C)n(C)n2)nc1-c1c[nH]c2c(NC(=O)CN3CC(OCc4ccncc4)C3)cccc12` [Example 27, N-(3-(2-((1,5-dimethyl-1H-pyrazol-3-yl)amino)-5-methylpyrimidin-4-yl)-1H-indol-7-yl)-2-(3-(pyridin-4-ylmethoxy)azetidin-1-yl)acetamide] stands 10 to 100 nM; under `Cc1cnc(Nc2cc(C)n(C)n2)nc1-c1c[nH]c2c(NC(=O)CN3CC[C@H](Oc4cc(N)ncn4)C3)cccc12` [Example 140, (S)-2-(3-((6-aminopyrimidin-4-yl)oxy)pyrrolidin-1-yl)-N-(3-(2-((1,5-dimethyl-1H-pyrazol-3-yl)amino)-5-methylpyrimidin-4-yl)-1H-indol-7-yl)acetamide], less than 10 nM.
Consider `Cc1cnc(Nc2cc(C)n(C)n2)nc1-c1c[nH]c2c(N3Cc4c(/C=C/C(=O)NN)cccc4C3=O)cccc12` [Example 366, (E)-3-(2-(3-(2-((1,5-dimethyl-1H-pyrazol-3-yl)amino)-5-methylpyrimidin-4-yl)-1H-indol-7-yl)-1-oxoisoindolin-4-yl)acrylohydrazide], for which the IC50 is less than 10 nM.
As for `CCC(C)Nc1nccc(O[C@H]2CCN(CC(=O)Nc3cccc4c(-c5nc(Nc6cc(C)n(C)n6)ncc5C)c[nH]c34)C2)n1` (stereo partly drawn) [Example 212, 2-((3S)-3-((2-(sec-butylamino)pyrimidin-4-yl)oxy)pyrrolidin-1-yl)-N-(3-(2-((1,5-dimethyl-1H-pyrazol-3-yl)amino)-5-methylpyrimidin-4-yl)-1H-indol-7-yl)acetamide], the figure is less than 10 nM.
Under `Cc1cnc(Nc2cc(C)n(C)n2)nc1-c1c[nH]c2c(N3Cc4cccc(-c5ccccc5)c4C3=O)cccc12` [Example 382, 2-(3-(2-((1,5-dimethyl-1H-pyrazol-3-yl)amino)-5-methylpyrimidin-4-yl)-1H-indol-7-yl)-7-phenylisoindolin-1-one] stands 10 to 100 nM; under `Cc1cnc(Nc2cc(C)n(C)n2)nc1-c1c[nH]c2c(NC(=O)CN3CC[C@H](Oc4nc(N)ncc4F)C3)cccc12` [Example 226, (S)-2-(3-((2-amino-5-fluoropyrimidin-4-yl)oxy)pyrrolidin-1-yl)-N-(3-(2-((1,5-dimethyl-1H-pyrazol-3-yl)amino)-5-methylpyrimidin-4-yl)-1H-indol-7-yl)acetamide], less than 10 nM.
